From patent publication US20260317306A1, “HETEROARYL DERIVATIVE COMPOUND AND USE THEREOF” (S2CBIO INC., priority 2022, published 2026)

Target: T1, human ANO6 (variant 5) (Homo sapiens, UniProt Q4KMQ2)
T1 construct: expressing human ANO6 (variant 5; NP_001191732.1); expressed in transfected cells; host or cells: Fischer rat thyroid (FRT) cells
T1 sequence (Q4KMQ2 1-931 isoform Q4KMQ2-2): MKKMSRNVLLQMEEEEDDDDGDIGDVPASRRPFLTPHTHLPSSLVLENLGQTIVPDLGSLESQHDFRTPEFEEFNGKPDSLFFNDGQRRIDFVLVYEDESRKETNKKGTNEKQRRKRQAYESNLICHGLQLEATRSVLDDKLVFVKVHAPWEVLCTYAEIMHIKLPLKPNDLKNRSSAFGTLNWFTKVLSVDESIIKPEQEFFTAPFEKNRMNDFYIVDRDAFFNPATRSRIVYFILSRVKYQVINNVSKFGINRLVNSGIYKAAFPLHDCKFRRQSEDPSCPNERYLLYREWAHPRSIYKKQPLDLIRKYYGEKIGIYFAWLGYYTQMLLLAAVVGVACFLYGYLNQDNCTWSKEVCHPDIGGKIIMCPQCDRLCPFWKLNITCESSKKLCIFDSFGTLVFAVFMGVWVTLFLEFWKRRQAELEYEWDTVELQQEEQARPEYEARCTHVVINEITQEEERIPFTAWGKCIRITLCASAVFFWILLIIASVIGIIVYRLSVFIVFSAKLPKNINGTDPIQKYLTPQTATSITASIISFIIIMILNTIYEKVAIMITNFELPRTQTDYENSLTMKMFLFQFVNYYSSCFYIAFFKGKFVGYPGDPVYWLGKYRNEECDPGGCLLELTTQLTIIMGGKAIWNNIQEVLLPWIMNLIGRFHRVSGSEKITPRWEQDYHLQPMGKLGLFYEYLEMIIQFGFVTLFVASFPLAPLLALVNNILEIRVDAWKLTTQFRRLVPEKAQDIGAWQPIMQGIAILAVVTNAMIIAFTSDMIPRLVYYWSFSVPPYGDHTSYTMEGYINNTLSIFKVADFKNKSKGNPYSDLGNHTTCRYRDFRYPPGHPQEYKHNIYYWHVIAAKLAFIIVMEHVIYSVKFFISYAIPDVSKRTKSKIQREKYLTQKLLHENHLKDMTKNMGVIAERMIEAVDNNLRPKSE
Assay: Lact C2 Assay (Measuring Phosphatidylserine Externalization Scramblase Function), ionomycin-treated Fischer rat thyroid (FRT) cells expressing human ANO6 (variant 5); compounds at 50 nM, 100 nM and 1 μM
Type: cell-based
Settings: 10 μM ionomycin, average of three tests, read-out: % Inhibition (phosphatidylserine externalization inhibitory activity); for inhibition at 0.05 µM: compound at 50 nM; for inhibition at 0.1 µM: compound at 100 nM
Method: Ionomycin (Alomonelab, cat. #I-700), DAPI (Sigma-Aldrich, cat. #D8417), paraformaldehyde (Biosesang, cat. #P2031), Lionheart FX automated fluorescence microscope (BioTek), Gen5™ software program (BioTek), and Image J analysis software program.
Fisher rat thyroid (FRT) cells expressing human ANO6 (variant 5; GenBank accession no. NP_001191732.1) were cultured at 37° C. under 5% Co2 conditions in DMEM/Ham's F-12 (1:1) medium supplemented with 10% Fetal Bovine Serum, 2 mM […], 100 units/mL penicillin, and 100 μg/mL streptomycin.
Fischer Rat Thyroid (FRT) cells (2×10^4 cells/well) expressing human ANO6 (variant 5) were cultured in a 96-well microplate for 24 hours. After the incubation, the cells were treated with compounds dissolved in DMSO to 1% v/v in each well at each concentration (50 nM, 100 nM, and 1 μM) and reacted for 10 minutes. Thereafter, each well was treated with ionomycin to a final concentration of 10 μM, allowed to react for 10 minutes, and then washed with 200 μL PBS. After washing, each well was treated with 50 μL of Lactadherin-C2 (Lact-C2)-GFP mixed in DMEM medium to a final concentration of 500 nM to stain phosphatidylserine, and cultured at 37° C. for 10 minutes. After completion of the reaction, the cells were washed with 200 μL PBS, and fixed with 4% paraformaldehyde for 5 minutes at room temperature. For morphological analysis, DAPI solution was added, and the cells were incubated for 15 minutes, followed by washing with PBS. The fluorescence intensity of Lact-C2-GFP bound to phosphatidylserine on the cell surface was measured using an automated fluorescence microscope. For quantitative analysis of the fluorescence intensity of Lact-C2-GFP, BioTek Gen5™ software and Image J analysis software programs were used.
Phosphatidylserine externalization inhibitory activity (%) by the compound was calculated through the following analysis method. Specifically, the background fluorescence value was subtracted from the measured Lact-C2-GFP fluorescence value, and the fluorescence value of the ionomycin non-treatment group and the ionomycin-treatment group in the same row where each test group was located in a 96-well microplate were calculated. In order to calculate the inhibitory activity (%) by the compound, the relative inhibitory activity was calculated by setting the compound and ionomycin non-treatment group to 100% inhibitory activity and the ionomycin alone treatment group to 0% inhibitory activity. To derive the results, the test was repeated three times, and the average values of the results were classified according to the range below and shown in Table 4 below (A: >60% inhibition, B: 30 to 60% inhibition, N/A: no test).

SMILES | inhibition at 0.05 µM | inhibition at 0.1 µM
Fc1ccc2nc(-c3cccc(Nc4ccc(-c5cccnn5)cn4)c3)[nH]c2c1 [Example 55] | > 60% | > 60%
c1cc(Nc2ncc(-c3ccncn3)cn2)cc(-c2nc3ccccc3[nH]2)c1 [Example 76, N-[3-(1H-benzo[d]imidazol-2-yl)phenyl]-[4,5′-bipyrimidin]-2′-amine] | 30 to 60% | > 60%
